For data set [1], the system named is B16-F10 melanoma cell line. As to the kind of experiment: chronic cell growth (cell proliferation) assay, 4 days. The settings on record: for IC50: read-out: ED50, dose required to reduce cell growth by 50%, 5760 min. Type of data set: cell-based. From the text:
FIG. 2B depicts the results of a chronic cell growth assay wherein the number of cells expressed as a percentage of a control sample (y-axis) are plotted as a function of the concentration (nM) of bryostatin 1 (squares), 26-epibryostatin 1 (circles), or PMA (triangles).
(§1) The unmodified and C-26 modified bryostatins were used in [^3 H]thymidine incorporation and cell proliferation assays. The phorbol ester PMA, a ligand for protein kinase C was also used in this example to provide a separate control sample. The selection of PMA as a control sample is particularly appealing since bryostatins antagonize a subset of the actions of PMA. [^3 H]Thymidine incorporation is a measure of DNA synthesis, which is often used as a marker of cell replication. Chronic cell growth assays are an alternative measure of cell growth, usually performed over longer periods of time.
For the cell proliferation assays, the B16-F10 melanoma cell line with high pulmonary metastatic potency (from the laboratory of Dr. I. J. Fidler, Frederick Cancer Research and Development Center, Frederick, Md.) were plated at a density of 10^3 cells/well in Costar 12-well tissue culture plates. The cells were then treated with different concentrations of bryostatin 1, 26-epi-bryostatin 1, or PMA in 0.1% DMSO 1 and 3 days after plating. Total cell number was determined 4 days after plating.

Data set [2] has as its system [3H]thymidine incorporation. Put plainly: [3H]thymidine incorporation with or without bisindolyl-maleimide I. The data set is classed as cell-based. Conditions: for [3H]thymidine incorporation expressed as percent of control: bryostatin 1 or epi-bryostatin 1 3 uM. The protocol:
(§2) For [^3 H]-thymidine incorporation assays, melanoma cells growing in log phase at a density of 40-50% confluency were treated for one day with the indicated compound.
(§3) Bisindolyl-maleimide I was used to inhibit both PMA and bryostatin 1 induced protein kinase C activity and bryostatin 1 induced inhibition of [^3 H]thymidine incorporation.
The effect of bisindolyl-maleimide I cotreatment on induction of protein kinase C activity and [^3 H]thymidine incorporation in response to PMA or bryostatin 1.

Data set [3] concerns protein kinase C. The data set is classed as cell-based. The settings on record: for fold increase of protein kinase C activity: PMA 10 nM, bryostatin 1 3 uM, 10 min. The protocol: as §3
Protein kinase C activity was assayed in cell lysates by measuring the incorporation of ^32 P from [γ-^32 P]ATP into acetylated myelin basic protein peptide (4-14) (Ac-MBP(4-14)) by methods known in the art (Nakadate et al., Biochem. Pharmacol., 37, 1541-1545 (1988)). The cells were treated at 60-75% confluency with bryostatin 1, 26-epi-bryostatin 1 and/or bisindolyl-maleimide I for 10 min. The cells were lysed by sonication in 20 mM Tris-HCl, pH 7.4, containing 5 mM EGTA and 20 uM leupeptin. 5 ul of cell lysate was added to 15 ul kinase buffer (20 mM HEPES, pH 7.5, 10 mM MgCl2, 0.5 mM CaCl2, 1 mM 4-(2-aminoethyl)benzenesulfonyl fluoride, 20 uM leupeptin, and 10 ug/ml aprotinin) containing 50 uM substrate, and 2 uCi [γ-^32 P]ATP at a concentration 50 uM ATP. The kinase reaction was incubated for 10 minutes at 30 ° C. The incorporated radioactivity was measured with a Pharmacia Biotech 1218 liquid scintillation counter.

Data set [4] has as its system B16/F10 melanoma cell line. As to the kind of experiment: [3H]thymidine incorporation assay in melanoma cells (one day treatment). Type of data set: cell-based. Conditions: for IC50: read-out: ED50, inhibition of [3H]thymidine incorporation.
From the text: FIG. 2A depicts the percentage of incorporation of [^3 H]thymidine relative to a control sample (y-axis) plotted as a function of the concentration (nM) of bryostatin 1 (squares) or 26-epibryostatin 1 (circles)
as §1, §2

Data set [5] concerns B16/F10 melanoma cell line. As to the kind of experiment: cells. Type of data set: cell-based. Conditions: for cytostatic / cytotoxic effect: 3 uM. As for the experimental part: The effect of bryostatin 1 and phorbol 12-myristate 13-acetate (PMA) on the proliferation of the B16/F10 melanoma cell line was first determined. Bryostatin 1 inhibited [^3 H]thymidine incorporation with an ED50 of 600±80 nM (n=3) and with a maximum inhibition of 60% (FIG. 2A). […] The effect on cell growth of chronic treatment with bryostatin 1 or PMA was also determined. […] In contrast to bryostatin 1, PMA increased the cell growth by 75±10% (n=3) at a dose of 10 nM; the dose response curve was biphasic, with smaller effects at higher and lower applied doses (FIG. 2B).
During the 4-day treatment schedule, the number of cells in the control group increased 80 to 100-fold.

Data set [6] deals with lymphoma, renal cancer, melanoma, leukemia, and ovarian cancer. The settings on record: cited from earlier work.
The subject of data set [7] is mice. Conditions: cited from earlier work.
In data set [8] the test system is C57BL/6 mice. Put plainly: in vivo toxicity in C57BL/6 mice, 7 days observation. As for the experimental part:
C57BL/6 mice were injected with either 500 ug/kg or 1500 ug/kg 26-epi-bryostatin 1 or 150 ug/kg or 500 ug/kg bryostatin 1.

The subject of data set [9] is humans. Conditions: three infusions of 2 μg/kg; cited from earlier work.
The test system of data set [10] is protein kinase C. The settings on record: cited from earlier work.
Data set [11] concerns protein kinase C. The settings on record: cited from earlier work. The source holds these as a separate data set.
Setting [12] is: with BIM-I (1 uM), PMA 10 nM, 1440 min.
Where [13] appears, read: without BIM-I, PMA 10 nM, 1440 min.

Where two headings read alike, the source gives them in different places.

These results are taken from patent US6060505A (priority 1999, dated 2000).

On to `CCCCCCCCCCCCCC(=O)O[C@@H]1[C@@H](C)[C@@]2(O)[C@@H](C=C(CO)C[C@]3(O)C(=O)C(C)=C[C@@H]23)[C@@H]2C(C)(C)[C@]12OC(C)=O` [PMA, phorbol 12-myristate 13-acetate], for which the activation at 0.01 µM in data set [1] (Mus musculus, B16-F10, 96 h, 10 nM, chronic treatment, read-out: increase in cell growth) was determined as 75 ± 10%. Further, the “dose response curve of cell growth” value in data set [1] (smaller effects at higher and lower applied doses than 10 nM) is “biphasic”. Further, the “[3H]thymidine incorporation expressed as percent of control” value is 98 ± 11% of control in [2] (with BIM-I (1 uM), PMA 10 nM) and 120 ± 22% of control in data set [2] (without BIM-I, PMA 10 nM). The “fold increase of protein kinase C activity” value worked out at 1.08 ± 0.1 fold in [3] (with BIM-I (1 uM)) and 4.4 ± 0.1 fold in data set [3] (without BIM-I). For the same compound, the activity at 0.01 µM in data set [4] (Mus musculus, B16-F10, 24 h, 10 nM, read-out: [3H]thymidine incorporation (slight increase)) came to 120 ± 20%. For the same compound, the “effect on [3H]thymidine incorporation” value in data set [4] (dose range between 0.1 nM to 3 uM) was “no significant effect”.

`CCCC=CC=CC(=O)OC1C(=CC(=O)OC)CC2CC(C(C)O)OC(=O)CC(O)CC3CC(OC(C)=O)C(C)(C)C(O)(CC4CC(=CC(=O)OC)CC(C=CC(C)(C)C1(O)O2)O4)O3` (centres unmarked) [bryostatin 1]: in data set [1] (4 days, 3 uM), the “inhibition of cell growth (maximal, highest dose tested)” value was found to be 75±5%. Also, the IC50 in data set [1] (chronic treatment, 4 days) is 50 ± 15 nM; in data set [4] (Mus musculus, B16-F10, 24 h) it was 600 ± 80 nM. The “cytostatic / cytotoxic effect” value in [5] was “arrested growth rather than killed cells”. Further, the cytotoxicity at 3 µM in data set [5] (Mus musculus, B16-F10, 96 h, after treatment in the cell growth assay, read-out: cell death (trypan blue exclusion)) was < 1%. In addition, the “inhibition of [3H]thymidine incorporation of bryostatin 1 plus bisindolyl-maleimide I relative to 26-epi-bryostatin 1 alone” value in data set [2] (combination with BIM-I) is “same level of inhibition”. Besides, the “[3H]thymidine incorporation expressed as percent of control” value was 25 ± 5% of control in [2] (setting [12]) and 43 ± 2% of control in [2] (setting [13]). Also, in [6], the antineoplastic effectiveness entry was “directly shown to be effective”. The lethal dose result in [7] is “greater than 200 μg/kg”. Also, in data set [8] (150 ug/kg injected), the toxicity entry is “only relatively minor toxic effects”. Moreover, the “toxicity, lethality” value in data set [8] (500 ug/kg bryostatin 1 injected) is “lethal for all animals tested by the third day after injection”. In data set [9], the side-effects entry was “significant side-effects including myalgia and hypotension”. Also, the figures for the “fold increase of protein kinase C activity” value in [3] (with BIM-I (1 uM)) and in [3] (without BIM-I) were 1.07 ± 0.04 fold and 3.02 ± 0.3 fold, respectively. Besides, in data set [4] (Mus musculus, B16-F10, 3 h, read-out: maximum inhibition of [3H]thymidine incorporation, B16/F10 melanoma, highest dose tested 3 uM), the inhibition at 3 µM was 60%.

`CCCC=CC=CC(=O)OC1C(=CC(=O)OC)CC2CC(C(C)O)OC(=O)CC(O)CC3CC(OC(C)=O)C(C)(C)C(O)(CC4CC(=CC(=O)OC)CC(C=CC(C)(C)C1(O)O2)O4)O3` (stereo not drawn) [26-epi-bryostatin 1]: in data set [1] (3 uM, 4 days), the growth arrest result is “almost complete growth arrest”. The “inhibition of cell growth (maximal, highest dose tested)” value in data set [1] (4 days, 3 uM) is recorded as 97±3%. In data set [1] (compared with bryostatin 1), the “maximum extent of inhibition relative to bryostatin 1, cell growth” value is recorded as “greater than for bryostatin 1” and the “reduction in potency relative to bryostatin 1, chronic cell growth assay” value stood at 3 fold. For the same compound, in [1] (chronic treatment, 4 days), the IC50 worked out at 140 ± 30 nM. For the same compound, in [5], the “cytostatic / cytotoxic effect” value is “powerful cytostatic agent with no cytotoxic effect”. Besides, in data set [5] (after treatment in the cell growth assay, 5760 min, 3 µM), the “cell death (trypan blue exclusion)” value is recorded as “less than 1%”. For the same compound, in [2] (setting [12]), the “[3H]thymidine incorporation expressed as percent of control” value was 20 ± 5% of control. In addition, the “[3H]thymidine incorporation expressed as percent of control” value in data set [2] (setting [13]) is 21 ± 3% of control. Further, in data set [10] (compared with bryostatin 1), the “affinity for protein kinase C of 26-epi-bryostatin 1” value is on record as “significantly reduced affinity”. In addition, the toxicity result in data set [8] (500 ug/kg injected) is “only relatively minor toxic effects”. Also, the toxicity entry in data set [8] (1500 ug/kg injected) is listed as “only relatively minor toxic effects”. In data set [8] (compared with bryostatin 1), the “therapeutic index relative to bryostatin 1” value is listed as “higher therapeutic index” and the “toxicity relative to bryostatin 1” value is reported as “significantly less toxic than bryostatin 1”. Also, the “maximum inhibition of [3H]thymidine incorporation” value in [4] (B16/F10 melanoma, highest dose tested 3 uM) is reported as 80±5%. For the same compound, in data set [4] (compared with bryostatin 1), the “inhibitory potency relative to bryostatin 1, [3H]thymidine incorporation” value is given as “inhibitory potency similar to that of bryostatin 1” and the “maximum extent of inhibition relative to bryostatin 1, [3H]thymidine incorporation” value is “greater than for bryostatin 1”. Besides, the IC50 in data set [4] (B16/F10 melanoma, one day, 1440 min) stood at 600 ± 120 nM.

For the compound `CCCC(=O)O[C@H]1/C(=C/C(=O)OC)C[C@H]2C[C@H]([C@H](C)O)OC(=O)C[C@H](O)C[C@@H]3C[C@H](OC(=O)C(C)(C)C)C(C)(C)[C@](O)(C[C@@H]4C/C(=C/C(=O)OC)C[C@H](/C=C/C(C)(C)[C@]1(O)O2)O4)O3` [C-26 epimer of bryostatin 4], the “binding activity / affinity for protein kinase C” value in data set [10] was “decreased binding activity”.

`CN(C)CCCn1cc(C2=C(c3c[nH]c4ccccc34)C(=O)NC2=O)c2ccccc21` [BIM-I, bisindolyl-maleimide I]: the “effect on PMA-induced increase in [3H]thymidine incorporation” value in data set [2] (BIM-I 1 uM, PMA 10 nM) is reported as “inhibited the modest PMA-induced increase”. In data set [2] (BIM-I 1 uM, bryostatin 1 3 uM), the “effect on bryostatin induced decrease in thymidine incorporation” value was “slightly enhanced” and the “effect on inhibition of thymidine incorporation by bryostatin 1” value is on record as “did not block”. Also, the “[3H]thymidine incorporation expressed as percent of control” value in data set [2] (with BIM-I (1 uM), PMA 10 nM) is reported as 91 ± 2% of control. In [11], the “protein kinase C inhibition” value is “powerful and specific protein kinase C inhibitor”. Also, the “inhibition of PMA or bryostatin 1 induced protein kinase C enzymatic activity” value in data set [3] (BIM-I 1 uM, PMA 10 nM or bryostatin 1 3 uM) is “completely inhibited”.

For `CCC/C=C/C=C/C(=O)O[C@H]1/C(=C/C(=O)OC)C[C@H]2C[C@H]([C@@H](C)OC(C)=O)OC(=O)C[C@H](O)C[C@@H]3C[C@H](OC(C)=O)C(C)(C)[C@](O)(C[C@@H]4C/C(=C/C(=O)OC)C[C@H](/C=C/C(C)(C)[C@]1(O)O2)O4)O3` [C-26 acetate ester of bryostatin], in data set [10], the “binding activity / affinity for protein kinase C” value is on record as “decreased binding activity”.
